System: HOP-62 complex spheroids with HUVEC/MSC, viability
Experiment: Anticancer human tumor HOP-62 cell line growth inhibition [RAS];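 also: spheroids exposed to agents for seven days before readout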;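 as to viability, T/C: 100% = DMSO vehicle control viability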
Details: for IC50: curve of first compound; for viability, T/C: stronger effect = lower value
Text: RAS pathway inhibitors in Combinations in Complex Spheroids
A high-throughput screen of multi-cell type tumor spheroids was designed to identify active combinations of RAS pathway inhibitors and targeted small molecules. Complex spheroids include a stromal component modeled by human endothelial cells (HUVEC) and fibroblasts modeled by human mesenchymal stem cells (MSCs). The concentration ranges selected for each drug and investigational agent were based upon clinically achievable concentrations if the clinical Cmax of the agent was known.
Compounds. The drugs and investigational agents: abemaciclib (NSC768073), cobimetinib (NSC768068), divarasib (GDC6063, NSC841802), docetaxel (NSC628503), GDC-1971 (RLY-1971, NSC841576), gemcitabine (NSC613327), inavolisib (NSC800729), ipatasertib (NSC767898), KB-0742 (NSC834161), MRTX-1133 (NSC836407), osimertinib (NSC779217), RMC-4630 (NSC839698), RMC-6236 (NSC851965), RMC-6291 (NSC852671), Ro-3306 (NSC812927), sapanisertib (NSC764658), SN-38 (NSC673596), staurosporine (NSC755774), SY5609 (NSC837396), and tovorafenib (DAY101, NSC766906), were obtained from the National Cancer Institute (NCI) Developmental Therapeutics Program Chemical Repository. The FDA-approved anticancer drug set is available from the NCI Developmental Therapeutics Program. […] The stock solutions were prepared in dimethyl sulfoxide (DMSO, Sigma-Aldrich, St. Louis, MO, cat. D2650) at 800-fold the tested concentration and stored at -70 degrees C prior to their use. All drugs and investigational agents were tested over a range starting from a high concentration at or near the clinical Cmax and decreasing in half-log increments. If the clinical Cmax for an agent had not been determined, the highest concentration tested was 10 microM.
Cell Culture. All cells were maintained in an incubator at 37 degrees C and 5% CO2 with 95% humidity. The PDC lines were cultured according to standard operating procedures established by the NCI PDMR. All PDCs were thawed and cultured in Matrigel-coated flasks prepared with a working solution of 1X Ham's F-12 nutrient mix, without supplementation (Invitrogen, Waltham, MA, cat. 11765054), 100 U/mL penicillin-streptomycin (Invitrogen, cat. 15140122), and 2.5% Matrigel (Corning Inc., Corning, NY, cat. 354248) for the first three passages. The 362531-283-R-J2-PDC and 782815-120-R-J1-PDC lines were cultured in 6C/Colon 1B media, which includes advanced DMEM/F-12 (Thermo Fisher Scientific, cat. 12634028), 10 mM HEPES (Thermo Fisher Scientific, cat. 15630080), 1X GlutaMAX supplement (Thermo Fisher Scientific, cat. 35050061), 0.1 mg/mL primocin (InvivoGen, San Diego, CA, cat. ant-pm-2), 10% defined fetal bovine serum, heat inactivated (HyClone Laboratories Inc., Logan, UT, cat. SH30070.03HI), 50% L-WRN conditioned media (ATCC, cat. CRL-3276), 1.25 mM N-Acetyl-L-cysteine (Sigma-Aldrich, cat. A9165), 10 mM nicotinamide (Sigma-Aldrich, cat. N0636), 1X B-27 supplement (Thermo Fisher Scientific, cat. 17504044), 1X N-2 supplement (Thermo Fisher Scientific, cat. 17502048), 50 ng/mL human EGF (Thermo Fisher Scientific, cat. PHG0311), and 10 microM Y-27632 dihydrochloride (Tocris Bioscience, cat. 1254). The K12877-001-R-J1-PDC line was cultured in 6I media, which includes all 6C/Colon 1B media plus 10 ng/mL human FGF-10 (PeproTech, cat. 100-26), 1 ng/mL human FGF-2 (PeproTech, cat. 100-18B), 1 µM prostaglandin E2 (Tocris Bioscience, cat. 2296), […] hydrocortisone (Sigma-Aldrich, cat. H4001), and […] bovine insulin (Sigma-Aldrich, cat. I6634). The K86415-001-R-J1-PDC line was cultured in 6D media, which includes all 6C/Colon 1B media components minus the L-WRN conditioned media. The 485176-168-R4-J1-PDC was cultured in PANC media, which includes all 6C/Colon 1B media plus 100 ng/mL human FGF-10 (PeproTech, cat. 100-26), 500 nM SB-431542 (Selleckchem, cat. S1067), and 10 nM gastrin (Tocris Bioscience, cat. 3006). […]

For CCN1CCN(Cc2ccc(Nc3ncc(F)c(-c4cc(F)c5nc(C)n(C(C)C)c5c4)n3)nc2)CC1 + C#Cc1c(F)ccc2cc(O)cc(-c3ncc4c(N5CC6CCC(C5)N6)nc(OCC56CCCN5CC(F)C6)nc4c3F)c12, the IC50 (second compound 0.0316 µM) was > 1 µM, the IC50 (second compound 0.1 µM) was > 1 µM and the IC50 (second compound 0.316 µM) was > 1 µM. The IC50 (second compound 1 µM) was > 1 µM, the IC50 (second compound 3.16 µM) was > 1 µM and the IC50 (second compound 10 µM) was < 0.00316 µM. It also gave a viability, T/C (second compound 0.0316 µM, first compound 0.00316 µM) of 119%, a viability, T/C (second compound 0.0316 µM, first compound 0.01 µM) of 105% and a viability, T/C (second compound 0.0316 µM, first compound 0.0316 µM) of 101%. The viability, T/C (second compound 0.0316 µM, first compound 0.1 µM) was 90.6%, the viability, T/C (second compound 0.0316 µM, first compound 0.316 µM) was 95.8% and the viability, T/C (second compound 0.0316 µM, first compound 1 µM) was 88.1%. The viability, T/C (second compound 0.1 µM, first compound 0.00316 µM) was 111%, the viability, T/C (second compound 0.1 µM, first compound 0.01 µM) was 103% and the viability, T/C (second compound 0.1 µM, first compound 0.0316 µM) was 89.8%. It also gave a viability, T/C (second compound 0.1 µM, first compound 0.1 µM) of 91.6%, a viability, T/C (second compound 0.1 µM, first compound 0.316 µM) of 89.3% and a viability, T/C (second compound 0.1 µM, first compound 1 µM) of 66.2%. The viability, T/C (second compound 0.316 µM, first compound 0.00316 µM) was 109%, the viability, T/C (second compound 0.316 µM, first compound 0.01 µM) was 102% and the viability, T/C (second compound 0.316 µM, first compound 0.0316 µM) was 96.3%. The viability, T/C (second compound 0.316 µM, first compound 0.1 µM) was 86%, the viability, T/C (second compound 0.316 µM, first compound 0.316 µM) was 90.2% and the viability, T/C (second compound 0.316 µM, first compound 1 µM) was 81.2%. The viability, T/C (second compound 1 µM, first compound 0.00316 µM) was 106%, the viability, T/C (second compound 1 µM, first compound 0.01 µM) was 99.6% and the viability, T/C (second compound 1 µM, first compound 0.0316 µM) was 90.7%. The viability, T/C (second compound 1 µM, first compound 0.1 µM) was 82.3%, the viability, T/C (second compound 1 µM, first compound 0.316 µM) was 83.2% and the viability, T/C (second compound 1 µM, first compound 1 µM) was 67.7%. It also gave a viability, T/C (second compound 3.16 µM, first compound 0.00316 µM) of 84.5%, a viability, T/C (second compound 3.16 µM, first compound 0.01 µM) of 76% and a viability, T/C (second compound 3.16 µM, first compound 0.0316 µM) of 69%. For the same molecule, the viability, T/C (second compound 3.16 µM, first compound 0.1 µM) was 57.9%, the viability, T/C (second compound 3.16 µM, first compound 0.316 µM) was 62.5% and the viability, T/C (second compound 3.16 µM, first compound 1 µM) was 57.7%. The viability, T/C (second compound 10 µM, first compound 0.00316 µM) was 46.4%, the viability, T/C (second compound 10 µM, first compound 0.01 µM) was 48.3% and the viability, T/C (second compound 10 µM, first compound 0.0316 µM) was 38.3%. It also gave a viability, T/C (second compound 10 µM, first compound 0.1 µM) of 45.7%, a viability, T/C (second compound 10 µM, first compound 0.316 µM) of 45.2% and a viability, T/C (second compound 10 µM, first compound 1 µM) of 42.5%.
